In PubChem BioAssay (NCI):
Several values for one entry are separate records, joined by “and”; a condition that tells them apart may be missing. Equal values may be shown once.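 1) Cells in 96-well plates. 2) Compound, 48 h, 5 concentrations. 3) Linear interpolation between surrounding doses. 4) Unreached endpoint = highest concentration. GI50: concentration for 50% inhibition of growth. TGI is the concentration that stops growth completely.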

Assays:
Assay in all cases: NCI-60 cell line screen, 48 h
HS 578T breast = tested on: HS 578T breast
T-47D breast = tested on: T-47D breast
SF-295 CNS = tested on: SF-295 CNS
A498 renal = tested on: A498 renal
NCI-H522 lung = tested on: NCI-H522 lung
A549 NSCLC = tested on: A549 NSCLC
NCI-H226 lung = tested on: NCI-H226 lung
DU-145 prostate = tested on: DU-145 prostate
CAKI-1 renal = tested on: CAKI-1 renal
U251 CNS = tested on: U251 CNS

Row | Structure (SMILES) | GI50 (HS 578T breast) | TGI (HS 578T breast) | GI50 (T-47D breast) | TGI (T-47D breast) | GI50 (SF-295 CNS) | TGI (SF-295 CNS) | GI50 (A498 renal) | TGI (A498 renal) | GI50 (NCI-H522 lung) | TGI (NCI-H522 lung) | GI50 (A549 NSCLC) | TGI (A549 NSCLC) | GI50 (NCI-H226 lung) | TGI (NCI-H226 lung) | GI50 (DU-145 prostate) | TGI (DU-145 prostate) | GI50 (CAKI-1 renal) | TGI (CAKI-1 renal) | GI50 (U251 CNS) | TGI (U251 CNS)
1 | O=S(=O)(Nc1ccc(F)cc1F)c1ccc(-c2cnc(C3CC3)o2)cc1 | 0.545 µM | 22.7 µM | 0.443 µM | 52.8 µM | 0.359 µM | 5.53 µM | 0.223 µM | 2.08 µM | 0.347 µM | 16 µM | 0.868 µM | > 100 µM | 1.7 µM | 43.3 µM | 2.09 µM | > 100 µM | 0.562 µM | > 65.3 µM | 0.552 µM | 26.8 µM
2 | CC[C@H]1CN2CCc3cc(OC)c(OC)cc3[C@@H]2C[C@@H]1C[C@H]1NCCc2c1[nH]c1ccc(O)cc21 | – | 0.0653 µM and 0.0327 µM | 0.0233 µM | 0.0897 µM and 0.0583 µM | 0.0323 µM and 0.246 µM | – | 0.191 µM | 0.136 µM and 0.507 µM and 0.223 µM | 0.00347 µM and 0.00354 µM | 0.0164 µM and 0.0108 µM | 0.0192 µM and 0.0336 µM | 0.0627 µM and 0.121 µM and 0.321 µM | 0.0282 µM and 0.0409 µM | 0.0778 µM and 0.261 µM and 0.0326 µM | 0.0249 µM | 0.0584 µM | – | 0.614 µM and 0.68 µM | 0.0222 µM and 0.0255 µM | 0.0702 µM and 0.075 µM and 0.154 µM
3 | COc1ccc(-c2ccc(-c3ccc(C(=N)N)s3)s2)cc1 | 0.295 µM | 1.41 µM | 0.243 µM | 0.596 µM | 0.188 µM | 0.395 µM | 1.1 µM | 2.41 µM | 0.264 µM | 1.2 µM | 0.195 µM | 0.393 µM | 2.06 µM | 5.15 µM | 0.193 µM | 0.357 µM | 0.345 µM | 1.19 µM | 0.179 µM | 0.337 µM
4 | CCN(Cc1ccccc1C)c1ccc(CO)c(Cl)c1 | 16 µM | 42.3 µM | 0.244 µM | 2.19 µM | 4.15 µM | 16.9 µM | 0.0283 µM | 0.114 µM | 13.4 µM | 28.8 µM | 6.63 µM | 27.9 µM | 0.0375 µM | 0.201 µM | 16.5 µM | 35.4 µM | 7.88 µM | 32 µM | 2.84 µM | 17.1 µM
5 | NCCSc1nc(-c2ccccc2)c(-c2ccccc2)o1 | – | > 100 µM | – | > 100 µM | – | > 100 µM | – | > 100 µM | – | > 100 µM | – | > 100 µM | – | > 100 µM | – | > 100 µM | – | > 100 µM | – | > 100 µM
6 | C1=C\COCc2cc(ccc2OCCN2CCCC2)Nc2nccc(n2)-c2cccc(c2)COC/1 | 1.18 µM | 5.78 µM | 1.37 µM | 5.12 µM | 3.34 µM | 5.94 µM | 1.86 µM | 5.32 µM | 3.08 µM | 5.23 µM | 2.03 µM | 5.72 µM | 3.19 µM | 5.09 µM | 1.55 µM | 5.53 µM | 0.971 µM | 4.15 µM | 2.49 µM | 5.21 µM
7 | O=C1NC(=NCCc2cccc(Cl)c2)S/C1=C\c1ccc2ncccc2c1 | > 25 µM | > 25 µM | > 25 µM | > 25 µM | > 25 µM | > 25 µM | > 25 µM | > 25 µM | > 25 µM | > 25 µM | > 25 µM | > 25 µM | > 25 µM | > 25 µM | > 25 µM | > 25 µM | > 25 µM | > 25 µM | > 25 µM | > 25 µM
8 | CCn1sc2ccccc2c1=O | – | 32.4 µM | – | 35.2 µM | – | > 55.1 µM | – | > 60 µM | – | 5.32 µM | – | 40.4 µM | – | 50.7 µM | – | 49.6 µM | – | 11.4 µM | – | 16.1 µM
9 | Cc1[nH]c(/C=C2\C(=O)Nc3ccccc32)c(C)c1CCC(=O)O | 9.45 µM | 51.9 µM and > 100 µM | – | > 100 µM | 24.9 µM | > 100 µM | 21.4 µM | 61.7 µM and > 100 µM | – | > 100 µM | 24.3 µM | > 100 µM | 15.2 µM | 42.6 µM | 35.4 µM | > 100 µM | 15.9 µM | 68.1 µM and > 100 µM | 38.1 µM | > 100 µM
10 | O=C(c1ccc(/C=C/c2n[nH]c3ccccc23)cc1)N1CCNCC1 | 1.93 µM and 4.22 µM | 7.36 µM and 31.7 µM | 19.5 µM | 47.1 µM | 3.15 µM and 5.28 µM | > 10 µM and 21.9 µM | 2 µM and 7.83 µM | 8.87 µM and 21.5 µM | 1.72 µM and 11 µM | 3.52 µM and 26.5 µM | 2.95 µM and 2.57 µM | > 10 µM and 39.4 µM | > 10 µM and 1.84 µM | > 10 µM and 8.66 µM | 5.76 µM and 4.15 µM | > 10 µM and 27.5 µM | 4.96 µM and 1.35 µM | > 10 µM and 9.11 µM | 1.81 µM and 12.2 µM | 3.33 µM and 27.2 µM
11 | O=C(CSC1CCc2ccccc21)N/N=C/c1ccccc1O (centres undefined) | 11.7 µM | 67.2 µM | 7.04 µM | > 100 µM | 6.84 µM | > 100 µM | 14.7 µM | 44 µM | 4.98 µM | 26.4 µM | 4.81 µM | > 100 µM | 3.11 µM | 35.8 µM | 6.09 µM | > 100 µM | 1.93 µM | 12.7 µM | 2.92 µM | 42.5 µM
12 | N=C(N)c1ccc2nc(-c3cc(CC(=O)N[C@@H](CC(=O)O)C(=O)O)cc(-c4cc(S(N)(=O)=O)ccc4O)c3O)[nH]c2c1 | > 100 µM | > 100 µM | > 100 µM | > 100 µM | > 100 µM | > 100 µM | > 100 µM | > 100 µM | > 100 µM | > 100 µM | > 100 µM | > 100 µM | > 100 µM | > 100 µM | > 100 µM | > 100 µM | > 100 µM | > 100 µM | > 100 µM | > 100 µM
13 | C=C1C(=O)O[C@H]2[C@H]1CC/C(COC(=O)/C=C\C(=O)NCc1ccc(Cn3c(=O)sn(CCCC)c3=O)cc1)=C\CC[C@@]1(C)O[C@@H]21 | 1.3 µM | 3.32 µM | 1.27 µM | 4.22 µM | 1.73 µM | 3.24 µM | 1.18 µM | 2.44 µM | 0.315 µM | 1.27 µM | 1.56 µM | 4.16 µM | 1.58 µM | 3.39 µM | 0.854 µM | 2.16 µM | 0.328 µM | 1.48 µM | 1.43 µM | 3.2 µM
14 | CCN1C(=O)N(CC)C2C1NN=c1s/c(=C3\C(=O)N(CC(C)(C)C)c4ccccc43)c(=O)n12 (centres undefined) | 2.66 µM | 19.7 µM | 5.71 µM | 53.7 µM | 2.84 µM | 12.6 µM | 1.12 µM | 4.85 µM | 3.19 µM | 18.5 µM | 4.35 µM | 36.4 µM | 5.71 µM | 28.1 µM | 3.79 µM | 18.6 µM | 1.84 µM | 22.2 µM | 4.13 µM | 20.6 µM
15 | CSc1ccc2c(c1)C(=O)c1c-2n(CCCBr)c(=O)c2cc([N+](=O)[O-])ccc12 | > 100 µM | > 100 µM | 17.8 µM | > 100 µM | 1.04 µM | > 100 µM | 8.32 µM | 96.4 µM | 5.32 µM | 97.4 µM | 7.61 µM | > 100 µM | 33.6 µM | > 100 µM | 3.9 µM | > 100 µM | 1.09 µM | 8.94 µM | 1.98 µM | > 100 µM
16 | O=C1NC(=O)/C(=C\c2ccccc2)C2=C1CCCC2 | 3.46 µM | 22.8 µM | 10.2 µM | 29.9 µM | 3.98 µM | 17.6 µM | 12.9 µM | 26.1 µM | 13.7 µM | 32.1 µM | 19.7 µM | 51.6 µM | 10.8 µM | 23 µM | 10.8 µM | 22.9 µM | 5.63 µM | 17.3 µM | 4.82 µM | 16.2 µM
17 | O=C(O)CC(NC(=O)CP(=O)(O)O)C(=O)O (centres undefined) | 74.5 µM | > 10000 µM | – | > 10000 µM | – | > 10000 µM | – | > 9870 µM | 78.3 µM | 9910 µM | 95.7 µM | 4250 µM | – | 7210 µM | – | > 10000 µM | 272 µM | 7240 µM | – | > 10000 µM
18 | NC(=O)c1cc(S(=O)(=O)Nc2nnc(-c3ccccc3)c(-c3ccccc3)n2)c(SCc2ccccc2)cc1Cl | > 44.4 µM | > 75.5 µM | > 100 µM | > 100 µM | > 57.7 µM | > 100 µM | > 88.6 µM | > 100 µM | > 44 µM | > 68.3 µM | > 100 µM | > 100 µM | > 46.9 µM | > 69.4 µM | > 100 µM | > 100 µM | > 100 µM | > 100 µM | > 55.6 µM | > 100 µM
19 | N#Cc1c(N/N=C/c2ccc(Cl)cc2Cl)nc(N)nc1N1CCCC1 | 2.4 µM | 7.01 µM | 88.4 µM | > 100 µM | 18.8 µM | > 100 µM | 19.5 µM | 36.1 µM | 28.9 µM | > 100 µM | 29.6 µM | 65 µM | 15.7 µM | > 100 µM | 10.7 µM | > 100 µM | 21.7 µM | 63.2 µM | 9.02 µM | 23.4 µM
20 | COc1ccc(-c2coc3c4c(ccc3c2=O)OCO4)cc1OC | – | > 100 µM | – | > 100 µM | – | > 100 µM | – | > 100 µM | – | > 100 µM | – | > 100 µM | – | > 100 µM | – | > 100 µM | – | > 100 µM | – | > 100 µM
